Test results published in patent publication US20080300298A1, “Honokiol Derivates For the Treatment of Proliferative Disorders” (priority 2005, published 2008).

How the values were obtained:
[1] = system: MM.1S cells; assay: [3H]-thymidine uptake with IL-6, IGF-1 or BMSCs; format: cell-based, human; conditions: 48 h
Description: DNA synthesis was measured as previously described, see, for example, Hideshima et al Blood. 2000; 96:2943-2950. Cells in 96-well culture plates were pulsed with 0.5 μCi/well of [^3H]-thymidine (Perkin Elmer, Boston, Mass.) during the last 8 h of culture, harvested onto glass filters with an automatic cell harvester (Cambridge Technology, Cambridge, Mass.), and counted using the LKB Betaplate scintillation counter (Wallac, Gaithersburg, Md.). All experiments were performed in triplicate.
Assessment of HNK-induced cytotoxicity against patient MM cells: Cytotoxicity of HNK against fresh MM cells was determined as previously determined, see, for example, Mitsiades et al Cancer Cell. 2004; 5:221-230. […] A CD38^high fraction enriched for MM cells was determined in side and forward scatter panel in each case. The expression of CD138 on gated cells was also evaluated. After HNK-treatment for 48 h, cells were harvested and percentage of CD38^high cells with or without HNK-treatment was evaluated. […] Cells were stained with propidium iodide (PI; 50 μg/mL; Sigma, St Louis, Mo.), and cell cycle profile was determined by using the program M software on an EPICS XL flow cytometer (Beckman Coulter, Hialeah, Fla.). […] Fluorescence intensity of TUNEL and APO 2.7 staining was determined using on EPICS XL flow cytometer. Cytotoxicity was determined by trypan blue exclusion assay. […]

[2] = system: apoptosis-related proteins in MCF-7 cells; assay: Western blot of apoptosis-related proteins; format: cell-based; conditions: 24 h
Description: Following treatment, the cells were harvested and stained for PI and annexin V, as described in Example 9. (B) is a bar graph in which the results of three independent experiments (HNK 60 μM, 24 h) are shown. Asterix indicates p<0.05. (C) is a series of photographs of the Western blots in which MCF-7 cells were treated with HNK (20 or 40 μM, 24 h), lysed and analyzed by Western blotting for the expression of apoptosis-related proteins.
Western blot analysis: Cells were harvested and lysed for total protein extraction in a buffer containing 50 mM Tris-Cl pH 7.4, 150 mM NaCl and 2% NP-40 together with a protease inhibitor cocktail (Comp). […] Immunoactivity was detected with horseradish peroxidase-conjugated secondary antibody and visualized by Enhanced Chemiluminescence (Pierce, Rockford, Ill.). Quantification of the results was performed using AlphaImager 2000 (Alpha Innotech, San Leandro, Calif.).
HNK induces apoptosis in breast cancer cell lines. […] MCF-7 cells were treated with HNK (60 μM for six or 24 hours) and apoptosis and cell death were assessed using annexin V and PI staining (FIG. 5 A). […] Upregulation of BAX was also noticed, (85% increase at 40 μM compared to control, as analyzed by densitometry) but no significant changes in BCL-2 or BAD levels were observed. […]

C=CCc1ccc(O)c(-c2ccc(O)c(CC=C)c2)c1 [HNK, Honokiol]
DNA synthesis triggered by binding to BMSCs ([1]; MM.1S on BMSCs of MM patients): abrogated | growth inhibition in the presence of IL-6 or IGF-1 ([1]; MM.1S): Neither IL-6 nor IGF-1 protected against HNK induced growth inhibition | Upregulation of BAX (densitometry), increase compared to control ([2]; MCF-7, 40 μM): 85% | PARP and caspase 8 levels ([2]; MCF-7, 20 or 40 μM): degradation of poly (ADP-ribose) polymerase (PARP) and decreased levels of caspase 8
